# Source: patent US11952362B2, “Compositions and methods for treating epigenetic disease” (The Regents of the University of California, priority 2018, dated 2024)
# Legend:
# TNBS colitis = TNBS colitis in mice; format: in vivo; details: for overall score: overall efficacy
# Method: Male C57BL/6J mice 8-10 weeks old were purchased from The Jackson Laboratory (Sacramento, CA, USA). Mice were housed 4 per cage, maintained on a 12:12 hour light-dark cycle and given access to food and water ad libitum. Following an acclimatization period of 3 to 5 days, trinitrobenzene sulfonic acid (TNBS, Millipore Sigma, St. Louis, MO, USA) colitis was induced by intracolonic (i.c.) injection of 0.05 ml TNBS solution (5 mg in 40% ethanol) via a polyethylene cannula (BD Intramedic PE-20 tubing, Thermo Fisher Scientific, Santa Clara, CA, USA) inserted 3.5 cm from the anal verge under isoflurane anesthesia (4% in O2 induction, 2.5-3% maintenance). Control mice received an injection of 40% ethanol (0.05 ml, i.c.). To test the effectiveness of the HDAC analogs, mice received a daily injection (0.1 ml, i.c.) of a selective HDAC class II inhibitor analog (50 mg/kg MJK001-013) or vehicle (5% dimethyl sulfoxide, Millipore Sigma) beginning one day prior to TNBS colitis induction (day −1) for a period of 5 days. Separate groups of mice received HDAC inhibitors or vehicle administered by daily oral gavage (50 mg/kg, 0.25 ml, p.o.). All analogs tested were first dissolved in dimethyl sulfoxide (DMSO) with rapid vortexing and subsequent dilution to 5% in sterile phosphate buffered saline (PBS; Gibco, Thermo Fisher Scientific). Vehicle contained 5% DMSO in sterile PBS. Prior to use, all solids were stored in amber (light-blocking) storage vials at 4° C. On the first day of administration, stock solutions were prepared, aliquoted and stored at −20° C. for daily use. Upon thawing, each aliquot was vortexed prior to intracolonic injection (via a polyethylene cannula) or oral gavage (20 ga×38 mm, Instech, Thermo Fisher Scientific). Following all in vivo experiments, animals were euthanized on day 4 by CO2 inhalation and cervical dislocation and the distal colons removed for further study.
# Disease severity was assessed by weight loss and measurement of colon length and determination of clinical and histological damage scores on day 4 of the protocol. Briefly, clinical scores were calculated on a scale of 0-3 for degree of weight loss, bleeding, stool consistency and presence of rectal prolapse. Sections of colon (5 μm) fixed in 10% formalin, paraffin-embedded and stained with hematoxylin and eosin (H&E) were used for histological scoring using an AxioImager. Z1 microscope equipped with AxioVision software version 4.6 (Zeiss, Jena, Germany). Scoring was performed by two independent investigators blinded to the treatment conditions and resulting scores averaged. Scores were assigned based on the degree of crypt damage (0-4), polymorphonuclear neutrophil (PMN) infiltrate (0-3), erosion (0-3), and edema (0-3).
# Statistical analyses were performed using GraphPad Prism (Version 5.0a; GraphPad Software, La Jolla, CA, USA). Differences were determined by unpaired t-test, 1-way analysis of variance, or a 2-way analysis of variance with Tukey's post-test. A p value <0.05 was considered to be statistically significant. Data presented are means±SEM for n animals.
# Novel chemical HDAC inhibitors were developed aiming to target specific isoforms of the HDAC Class IIA members. Overall, as shown above, compounds have been synthesized, named MJK-001, -002, -003, -004, -005, -006, -007, -008, -009, -010, -011, -012 & -013. The effect of selective HDAC class IIA isoform inhibition during development of colitis in mice in vivo during TNBS administration was assessed. This mouse model is known to recapitulate many features of human Crohn's Disease. Mice received either an intracolonic (i.c.) injection or oral delivery (p.o.) of the MJK compounds once daily for a period of 5 days and health status, weight loss, and disease activity were monitored. Mice (male C57BL/6J, 8-10 wks old) are weighed and monitored daily. On the final day, blood, feces, and colonic samples for RNA, protein and histology are collected for downstream analysis. […]
# HDAC4 = target: T1, HDAC4 (Homo sapiens, UniProt P56524); test: Fluorogenic HDAC4 activity assay; format: biochemical; details: fluorogenic assay kit, in words
# T1 construct: purchased BPS Bioscience 50064
# T1 sequence (P56524 whole entry): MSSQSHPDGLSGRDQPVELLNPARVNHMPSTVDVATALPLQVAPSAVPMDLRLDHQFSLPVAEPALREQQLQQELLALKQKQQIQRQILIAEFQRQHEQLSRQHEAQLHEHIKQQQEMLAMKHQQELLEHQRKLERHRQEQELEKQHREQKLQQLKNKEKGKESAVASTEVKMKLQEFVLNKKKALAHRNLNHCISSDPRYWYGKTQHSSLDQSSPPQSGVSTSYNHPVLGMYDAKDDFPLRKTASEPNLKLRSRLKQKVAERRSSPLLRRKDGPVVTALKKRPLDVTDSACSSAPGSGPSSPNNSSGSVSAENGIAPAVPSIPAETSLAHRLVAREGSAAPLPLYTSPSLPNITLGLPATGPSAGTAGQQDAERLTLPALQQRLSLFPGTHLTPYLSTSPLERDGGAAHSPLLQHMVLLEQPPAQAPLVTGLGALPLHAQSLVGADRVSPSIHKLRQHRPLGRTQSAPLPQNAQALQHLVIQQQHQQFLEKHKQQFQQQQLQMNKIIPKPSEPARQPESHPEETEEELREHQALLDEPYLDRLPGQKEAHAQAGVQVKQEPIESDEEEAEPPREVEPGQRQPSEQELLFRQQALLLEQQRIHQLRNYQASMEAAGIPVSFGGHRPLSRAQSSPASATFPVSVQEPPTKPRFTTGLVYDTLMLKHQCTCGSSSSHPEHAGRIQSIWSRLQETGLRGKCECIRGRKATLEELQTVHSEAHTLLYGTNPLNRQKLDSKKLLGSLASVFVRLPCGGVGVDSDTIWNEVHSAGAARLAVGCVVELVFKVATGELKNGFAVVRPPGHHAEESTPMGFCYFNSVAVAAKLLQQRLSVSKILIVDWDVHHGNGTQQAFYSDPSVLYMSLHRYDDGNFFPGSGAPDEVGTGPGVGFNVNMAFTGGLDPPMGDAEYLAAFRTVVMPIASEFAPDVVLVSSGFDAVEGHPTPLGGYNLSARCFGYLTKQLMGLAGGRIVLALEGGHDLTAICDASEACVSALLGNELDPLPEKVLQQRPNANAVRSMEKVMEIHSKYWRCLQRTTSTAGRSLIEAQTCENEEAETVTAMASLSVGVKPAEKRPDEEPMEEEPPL
# Method: To measure the effects of MJK-001, -004, -006 and -008 on HDAC4 & 9 activity fluorogenic HDAC9 (#50069) and HDAC4 (#50064) assay kits (BPS Bioscience) were used. Briefly, these assays consist of two steps; in the first one the HDAC fluorometric substrate containing an acetylated lysine side chain is incubated with purified HDAC9. In the second step, the deacetylation sensitizes the substrate so subsequent treatment with the lysine developer produces a fluorophore that was measured by a fluorescence reader.
# [1] = i.c. administration, 50 mg/kg daily for 5 days, day 4, vs vehicle-treated mice, 50 mg/kg
# [2] = i.c. administration, 50 mg/kg daily for 5 days, day 4, vs vehicle-treated mice, listed as MJK-001, 50 mg/kg
# [3] = i.c. administration, 50 mg/kg daily for 5 days, day 4, vs vehicle-treated mice, listed as MJK-004, 50 mg/kg
# [4] = i.c. administration, 50 mg/kg daily for 5 days, day 4, vs vehicle-treated mice, hydrochloride, 50 mg/kg
# [5] = i.c. administration, 50 mg/kg daily for 5 days, day 4, vs vehicle-treated mice, listed as MJK-008, hydrochloride, 50 mg/kg
# [6] = oral administration (p.o., 50 mg/kg daily)
structure (smiles),measurement,setting,value
"Cn1c(/C=C/C(=O)NO)ccc1/C=C/C(=O)c1cccc(F)c1 [MJK001, (E)-3-(5-((E)-3-(3-Fluorophenyl)-3-oxoprop-1-en-1-yl)-1-methyl-1H-pyrrol-2-yl)-N-hydro-xyacrylamide]",histological score,"TNBS colitis; i.c. administration, 50 mg/kg daily for 5 days, day 4, vs vehicle-treated mice",♦♦
same,clinical score,TNBS colitis; [1],♦♦
same,colon length,TNBS colitis; [1],♦♦
same,clinical score,TNBS colitis; [2],statistical significance in the reduction of the clinical score
same,colon length,TNBS colitis; [2],increase of colon length
same,HDAC4 activity / specificity,HDAC4,partially blocks
"Cn1c(/C=C/C(=O)NO)ccc1/C=C/C(=O)c1cccs1 [MJK004, (E)-N-hydroxy-3-(1-methyl-5-((E)-3-oxo-3-(thiophen-2-yl)prop-1-en-1-yl)-1H-pyrrol-2-yl)acrylamide]",clinical score,TNBS colitis; [1],♦♦
same,colon length,TNBS colitis; [1],ns
same,clinical score,TNBS colitis; [3],reduction in clinical scoring
same,colon length,TNBS colitis; [3],did not alter colon length
same,HDAC4 activity / specificity,HDAC4,high specificity for HDAC4
"Cn1c(/C=C/C(=O)NO)ccc1/C=C/C(=O)c1cccnc1 [MJK006, (E)-N-hydroxy-3-(1-methyl-5-((E)-3-oxo-3-(pyridin-3-yl)prop-1-en-1-yl)-1H-pyrrol-2-yl)acrylamide]",clinical score,TNBS colitis; [1],♦♦
same,colon length,TNBS colitis; [1],♦♦
same,histological score,TNBS colitis; [1],♦♦♦
same,histological score,"TNBS colitis; i.c. administration, 50 mg/kg daily for 5 days, day 4, vs vehicle-treated mice, listed as MJK-006, 50 mg/kg",significant differences
same,overall score,TNBS colitis; i.c. administration,substantial effect on suppressing TNBS-induced colitis
same,HDAC4 activity / specificity,HDAC4,decreased HDAC4 specificity
"Cl.Cn1c(/C=C/C(=O)NO)ccc1/C=C/C(=O)c1cccnc1 [MJK008, (E)-N-Hydroxy-3-(1-methyl-5-((E)-3-oxo-3-(pyridin-3-yl)prop-1-en-1-yl)-1H-pyrrol-2-yl)ac-rylamide hydrochloride]",clinical score,TNBS colitis; [4],♦♦
same,colon length,TNBS colitis; [4],♦
same,histological score,TNBS colitis; [4],♦♦♦
same,clinical score,TNBS colitis; [5],decreasing the clinical and histological score
same,colon length,TNBS colitis; [5],significant effect in preserving colon length
same,histological score,TNBS colitis; [5],decreasing the clinical and histological score
same,overall score,"TNBS colitis; i.c. administration, hydrochloride",substantial effect on suppressing TNBS-induced colitis
same,clinical score,TNBS colitis; [6],highly efficient in reducing the clinical score
same,colon length,TNBS colitis; [6],preserving colon length
same,histology score,TNBS colitis; [6],decreasing the histology score
same,HDAC4 activity / specificity,HDAC4,decreased HDAC4 specificity
